From patent US9409900B2, “Compound for increasing kinase active and application thereof” (FUJIAN HAIXI PHARMACEUTICALS, INC., priority 2010, dated 2016) come the findings set out here.

pEC50: −log10 of the molar value.

For this test, the target named is glucokinase (Homo sapiens (Human), UniProt P35557). The test is described as follows: Glucokinase Activation Assay. It is filed as biochemical. As to conditions: 5 mM glucose, 100 nM glucokinase, G6PDH-coupled, absorbance at 340 nm, pH 7.1. Here is the method: The final assay volume was 200 uL and the final buffer conditions used in this assay were as follows: 25 mM HEPES, 5 mM glucose, 1 mM ATP, 2 mM MgCl2, 1 mM NAD, 1 mM DTT, 8.5 U/mL G6PDH, 100 nM glucokinase, and 25 mM KCl. The buffer pH was 7.1. The mixture A was first made containing KCl, MgCl2, DTT and Glucose in HEPES buffer. The mixture B was made containing NAD and ATP. The test compound in DMSO solution, the mixture A, the mixture B and G6PDH were first mixed in a 96-well plate. Glucokinase was then added to initiate the reaction, and the absorbance at 340 nm was monitored every 5 mins. The activity of glucokinase was represented by the initial generation rate of glucose-6-phosphate, which was calculated by drawing the slope values from the absorbance changing curve at 340 nm vs. the time points.
Sequence of glucokinase (P35557 whole entry, species assumed): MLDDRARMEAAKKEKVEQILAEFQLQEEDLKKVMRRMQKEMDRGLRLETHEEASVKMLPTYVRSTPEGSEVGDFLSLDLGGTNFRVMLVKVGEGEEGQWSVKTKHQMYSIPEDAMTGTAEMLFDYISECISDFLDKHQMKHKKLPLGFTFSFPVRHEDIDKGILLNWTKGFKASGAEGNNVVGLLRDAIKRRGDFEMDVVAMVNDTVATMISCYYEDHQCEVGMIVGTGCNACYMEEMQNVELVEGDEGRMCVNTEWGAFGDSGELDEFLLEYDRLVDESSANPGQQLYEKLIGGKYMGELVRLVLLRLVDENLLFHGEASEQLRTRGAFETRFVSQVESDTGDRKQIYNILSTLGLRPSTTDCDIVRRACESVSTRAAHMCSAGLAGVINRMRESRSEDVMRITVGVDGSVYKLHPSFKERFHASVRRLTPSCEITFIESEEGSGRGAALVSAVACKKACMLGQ
In general, pEC50 refers to the EC50 on a negative log10 scale, so that one unit is a factor of ten. The low end stands for a large EC50, the high end for a small EC50. Regarding `CN(C)C(=O)c1ccc(Oc2ccc(Nc3ccc(CCC(=O)O)cn3)cc2CN2CCCC2=O)cn1` [Example 78, 3-(6-(4-(6-(dimethylcarbamoyl)pyridin-3-yloxy)-3-((2-oxopyrrolidin-1-yl)methyl)phenylamino)pyridin-3-yl) propanoic acid], the pEC50 was 5.82.
The value for `Cc1cnc(Nc2ccc(Oc3ccc(S(C)(=O)=O)nc3)c(CN3CCCC3=O)c2)s1` [Example 13, 1-(2-(6-(methylsulfonyl)pyridin-3-yloxy)-5-(5-methylthiazol-2-ylamino)benzyl)pyrrolidin-2-one] was 5.70.
`CS(=O)(=O)c1ccc(Oc2ccc(Nc3ccc(C(=O)O)cn3)cc2CN2CCCC2=O)cn1` [Example 6, 6-(4-(6-(methylsulfonyl)pyridin-3-yloxy)-3-((2-oxopyrrolidin-1-yl)methyl)phenylamino) nicotinic acid] gave a pEC50 of 5.70.
On to `CN(C)C(=O)c1ccc(Oc2ccc(Nc3ccccn3)cc2CN2CCCC2=O)cn1` [Example 65, N,N-dimethyl-5-(2-((2-oxopyrrolidin-1-yl)methyl)-4-(pyridin-2-ylamino)phenoxy)picolinamide], for which the pEC50 was 5.30.
